# Experimental data: ChEMBL document CHEMBL1127340, “A new approach to the design of sigma-2-selective ligands: synthesis and evaluation of N-[2-(3,4-dichlorophenyl)ethyl]-N-methyl-2-(1- pyrrolidinyl)ethylamine-related polyamines at sigma-1 and sigma-2 receptor subtypes” (J Med Chem, 1994)
# Biological target: Sigma 2 receptor
# Test: Binding affinity towards sigma 2 receptor was determined in rat liver membrane using [3H]DTG as radioligand in presence of dextrallorphan
# Format: cell membranes
row,Structure (SMILES),Ki [nM]
1,Clc1ccc(CCNCCNCCN2CCCC2)cc1Cl,111
2,CN(CCCCN1CCCC1)CCCN(C)CCc1ccc(Cl)c(Cl)c1,152
3,NCCNCCNCCc1ccc(Cl)c(Cl)c1,537
4,CN(CCc1ccc(Cl)c(Cl)c1)CCN(C)CCN(C)CCN(C)CCN1CCCC1,162
5,CN(CCCCN(C)CCc1ccc(Cl)c(Cl)c1)CCCCN1CCCC1,115
6,NCCN(CCc1ccc(Cl)c(Cl)c1)CCN1CCCC1,135
7,NCCNCCc1ccc(Cl)c(Cl)c1,2360
8,Clc1ccc(CCN2CCCC2)cc1Cl,7700

# The remaining lines, values ahead:
row,Ki [nM],Structure (SMILES)
1,52.6,CN(CCCN(C)Cc1ccc(Cl)c(Cl)c1)CCN1CCCC1
2,12.1,CN(CCN(C)Cc1ccc(Cl)c(Cl)c1)CCN1CCCC1
3,53.6,CN(CCc1ccc(Cl)c(Cl)c1)CCN(C)CCN(C)CCN1CCCC1
4,183,CN(CCCN1CCCC1)CCN(C)Cc1ccc(Cl)c(Cl)c1
5,8.1,CN(CCc1ccc(Cl)c(Cl)c1)CCN1CCCC1
6,14.9,CN(CCCN(C)CCc1ccc(Cl)c(Cl)c1)CCCN1CCCC1
7,14.4,CN(CCc1ccc(Cl)c(Cl)c1)CCN(C)CCN1CCCC1
